The record followed here is PubChem BioAssay AID179 (DTP/NCI, 2004).

Structures are written as SMILES. The source made the active and inactive calls.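 The calls were made as follows: active = compounds giving half or more protection of infected cells from virus-caused growth loss, again on retest; inactive = the rest.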 Where a SMILES comes first, the peptide text is derived from it. The star is where a group is joined. Cbz = O=C(OCc1ccccc1)*

As a reminder, the EC50 is the concentration needed to bring the measured effect to its halfway point. The term IC50 denotes the concentration needed to halve the response being measured. A low value points to inhibition by little substance.

The test has as its system CEM cells HIV-1 protection, formazan growth assay. Put plainly: NCI AIDS Antiviral Assay. Particulars: for IC50: measured here: growth of uninfected CEM cells. In a few lines: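 Screen of anti-HIV-1 activity in human CEM cells using a formazan-based growth measurement at five drug concentrations. Hits with 50% or greater protection were repeated, and confirmation required reproducible complete protection.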

On to `Cn1c2ccc3cc2c(=S)c2cc(ccc21)OCCOCCOCCOCCOCCO3`, for which the EC50 is > 200 µM and the IC50 came to 61.7 µM. Taken in the same sequence, the figures for `Cc1ccccc1-n1c(=O)c2ncn(C3CCCO3)c2n(-c2ccccc2C)c1=S` (centres undefined) were > 200 µM and > 200 µM. The matching figures for `CCCCCCCCCCCCCC(=O)O[C@H]1CC[C@H](NC(=O)[C@H](OC)[C@H](O)[C@@H](O)[C@H](O)/C=C/C(C)C)C(=O)NC1`: > 2 µM and 0.00661 µM.

As to `Cn1c(N2CCCC2)c(C=O)c(=O)n(C)c1=O`, the result was inactive. Consider `C=C1CCC([N+](=O)[O-])[C@](C)(N=O)CC[C@@H]2C1CC2(C)C` (some centres undefined), for which the EC50 was > 200 µM and the IC50 was 17 µM. The matching figures for `[N-]=[N+]=Nc1c([N+](=O)[O-])c(=O)n(-c2ccccc2)c2ccccc12`: > 200 µM and 13.5 µM. On to `Cc1cc(C)nc(NS(=O)(=O)c2ccc(NC(=O)c3cccn4c(=O)c5ccccc5nc34)cc2)n1`, for which the result was inactive. For the compound `COC(=O)CC(C(C(=O)OC)C(=O)OC)N1C(=O)OC(c2ccccc2)C1c1ccccc1` (centres undefined), the EC50 is 37.2 µM and the IC50 was found to be 74.1 µM. With `N#Cc1ccc(Sc2nc3ccccc3[nH]2)cc1`, the outcome was inactive. For `N=c1n(CC(=O)NC23CC4CC(CC(C4)C2)C3)c2ccccc2n1CC(=O)NC12CC3CC(CC(C3)C1)C2`, the EC50 is > 200 µM and the IC50 amounted to 3.72 µM. The matching figures for `O=C(CCCCC[n+]1ccccc1)Sc1ccccc1C(=O)NCc1ccc2c(c1)OCO2`: > 34.7 µM and 5.37 µM. `O=C(NP(=O)(N1CC1)N1CC1)OCc1ccccc1`: the EC50 is > 200 µM and the IC50 is > 200 µM. `CCOC(=O)C1=C(OS(=O)(=O)C(F)(F)F)CCCC1`: the EC50 is > 200 µM and the IC50 was > 200 µM. Consider `Cc1cc(NS(=O)(=O)c2ccc(NC(NC(=O)C(C(F)(F)F)C(F)(F)F)(C(F)(F)F)C(F)(F)F)cc2)no1`, for which the EC50 was > 200 µM and the IC50 was > 200 µM. Regarding `O=C(O)C1c2ccccc2C(C(=O)O)c2ccccc21` (centres undefined), the outcome was inactive. Consider `O=[N+]([O-])[O-].O=[N+]([O-])[O-].[Au].[Au].c1ccc([P-]c2ccccc2)cc1.c1ccc([P-]c2ccccc2)cc1`, for which the EC50 is > 4.27 µM and the IC50 is > 4.27 µM. Regarding `CC1=C(C)CS(=O)N(c2ccccc2)C1` (centres undefined), the EC50 was > 200 µM and the IC50 was determined as 89.1 µM. `Cc1ccc([B-]23OCC[N+]2(CNC(=O)C2=C(O)C4(O)C(=O)C5=C(O)c6c(O)cccc6C(C)(O)C5CC4C(N(C)C)C2=O)CCO3)cc1` (centres undefined): the EC50 was > 53.7 µM and the IC50 was > 53.7 µM. As for `NNC(=O)C(CC(C(=O)NN)C(=O)NN)C(=O)NN`, the EC50 is > 912 µM and the IC50 stood at 66.1 µM. As to `O=C(SCc1c(O)c2ccccc2oc1=O)c1ccccc1`, the EC50 was > 200 µM and the IC50 stood at 67.6 µM. In the case of `C(=Nc1ccccc1)c1ccc(C=Nc2ccccc2)cc1`, the EC50 was > 3.63 µM and the IC50 was > 3.63 µM. Turning to `O=S(=O)(O)c1ccc(N=Nc2ccc(N=Nc3cccc4ccccc34)c(S(=O)(=O)O)c2)cc1`, the EC50 is > 50.1 µM and the IC50 was > 50.1 µM.

Regarding `Cc1cn(C2CC(Br)C(COC(c3ccccc3)(c3ccccc3)c3ccccc3)O2)c(=O)[nH]c1=O` (centres undefined), the EC50 is > 200 µM and the IC50 is 13.8 µM.

Turning to `CC1=CC(O)C(Br)C(C)(C)C12CCC(C)(Cl)C(Br)C2` (centres undefined), the EC50 was > 200 µM and the IC50 was determined as 25.1 µM. For `CCOC(=O)C1C(c2ccc(OC)cc2)c2c([nH]n(-c3ccccc3)c2=O)CC1(O)OCC` (centres undefined), the EC50 is > 200 µM and the IC50 amounted to 9.12 µM. The matching figures for `COC(=O)C1c2c(C)cc3n2C(C=CC3)C1C(=O)OC` (centres undefined): > 324 µM and 115 µM.

Consider `CCCCCO/N=C\c1c2c(O)c3c(O)c(C)c4c(c3c1O)C(=O)C(C)(O/C=C\C(OC)C(C)C(OC(C)=O)C(C)C(O)C(C)C(O)C(C)/C=C\C=C(\C)C(=O)N2)O4` (centres undefined), for which the EC50 is > 200 µM and the IC50 was found to be 8.91 µM. On to `CN(C)CCN(C)CC(O)CO` (centres undefined), for which the result was inactive. Turning to `COc1ccc(C2=C(C#N)C(=O)OCCN2C)cc1`, the EC50 is > 200 µM and the IC50 is > 200 µM.

In the case of `Nc1nc(N)c(CCCCc2ccccc2)c(Cc2ccccc2)n1`, the outcome was inactive. For the compound `O=C(NCCCCCCCCNC(=O)c1cc(-c2ccccc2)nc2ccccc12)c1cc(-c2ccccc2)nc2ccccc12`, the EC50 is > 200 µM and the IC50 is > 200 µM.

Consider `COc1cc(C2c3c(ccc4ccccc34)C(=O)C3CCC(=O)N32)cc(OC)c1O` (centres undefined), for which the EC50 was > 25.1 µM and the IC50 came out at 1.29 µM. Taken in the same sequence, the figures for `CN(O)C(=O)CCCC(=O)NCC(C)(C)CNC(=O)CCCC(=O)N(C)O` were > 200 µM and > 200 µM. Taken in the same sequence, the figures for `CCOC(=O)C(=O)NC12CC3CC(CC(C3)C1)C2` were > 724 µM and > 724 µM. Consider `CCN(CC)CCNc1ccc2ncn3c4c(OC)ccc(=O)c4c(O)c1c23`, for which the EC50 was > 50.1 µM and the IC50 was 0.0219 µM. Regarding `c1ccc2c(c1)[nH]c1cnc3c4ncccc4[nH]c3c12`, the outcome was inactive. Consider `CC1(CO)C(=O)OC12CCCCC2` (centres undefined), for which the EC50 is > 1350 µM and the IC50 was > 1350 µM. `O=C1NC(=O)C(c2ccccc2)O1` (centres undefined): the EC50 is > 1410 µM and the IC50 turned out to be 447 µM. For `O=[N+]([O-])c1nccn1CC(O)CO` (centres undefined), the EC50 was > 661 µM and the IC50 was > 661 µM. As to `Nc1nc(NCC2(CO)CC2)cc(=O)[nH]1`, the EC50 was > 200 µM and the IC50 is > 200 µM. Turning to `O=C1C=Cc2ncccc2C1=O`, the EC50 was > 1580 µM and the IC50 is 5.5 µM. Consider `Cc1ccc2c(c1)nc(-c1ccccn1)n2CCc1ccccn1`, for which the EC50 was > 347 µM and the IC50 turned out to be 83.2 µM.

`C[N+](C)([O-])C12CC3CC(CC(C3)C1)C2`: the EC50 was > 200 µM and the IC50 is > 200 µM. With `CCOC(=O)CCC(NC(=O)C(Cc1ccccc1)NC(=O)OCc1ccccc1)C(=O)OCC` (stereo not drawn) (Cbz-Phe-Glu(OEt)-OEt; configuration not given here), the EC50 was > 200 µM and the concentration for half-maximal inhibition (IC50) came out at 9.55 µM. Consider `CC12OOC(c3ccccc31)c1c2ccc2ccccc12` (centres undefined), for which the outcome was inactive. With `CC1=C/C(=C(/c2cccc(S(=O)(=O)O)c2)c2cc(C)c(O)c(C(=O)O)c2)C=C(C(=O)O)C1=O`, the outcome was inactive.

In the case of `O=c1[nH]nc(-c2ccccc2)n1/N=C/c1cccnc1`, the EC50 was > 200 µM and the IC50 stood at 61.7 µM. Taken in the same sequence, the figures for `CNS(=O)(=O)c1c(NC=O)ncn1C` were > 1150 µM and > 1150 µM. Taken in the same sequence, the figures for `COc1c2c(c(O)c3c4c(c(C)cc13)C1OC3(C(OC)OC5CC(C)(O)C(OC6CC(C)(O)C(O)C(C)O6)C(C)O5)OC1C(OC)(O4)C31CO1)C(=O)C(O)CC2OC1CC(C)(O)C(OC(C)=O)C(C)O1` (centres undefined) were > 26.3 µM and 0.00832 µM. Take `CSc1ncc2c(n1)sc1c(=O)n(-c3ccccc3)cnc12`: the EC50 was > 200 µM and the IC50 was > 200 µM. Turning to `Cc1nc(-n2nc(-c3ccccc3)cc2-c2ccccc2)sc1C(=O)/C=C/c1ccccc1`, the EC50 was > 16.2 µM and the IC50 stood at 8.32 µM.

Take `O=C(/C=C/c1ccc(O)c(O)c1O)OCCc1ccccc1`: the EC50 was > 200 µM and the IC50 was 2.34 µM. Turning to `CC(=O)NC(CCCCNC(=O)N(C)N=O)C(=O)NCc1ccccc1` (centres undefined), the EC50 is > 692 µM and the IC50 came out at 141 µM. On to `CC1C2CC(CC2(C)O)C1(C)C` (centres undefined), for which the EC50 was > 562 µM and the IC50 is > 562 µM.

As to `CC1(C)N/C(=C\[N+](=O)[O-])C(C)(C)N1O`, the EC50 is > 200 µM and the IC50 is > 200 µM. For `NC(=O)N/N=C/c1ccc(Cl)cc1`, the EC50 is > 132 µM and the IC50 is > 132 µM.

`CC1(N2CCOCC2)CC2C(=[N+]1[O-])CCC/C2=N/O` (centres undefined): the EC50 is > 200 µM and the IC50 is > 200 µM. Take `Cc1cc(N(CCC#N)CCC#N)ccc1/C=C1\SC(=S)NC1=O`: the EC50 was > 200 µM and the IC50 worked out at 32.4 µM. For the compound `CCNc1nc2c(=O)n(C)c(=O)n(C)c2s1`, the EC50 was > 186 µM and the IC50 was > 186 µM. In the case of `C=CCC(CC(CC=C)C(=O)O)C(=O)O` (centres undefined), the EC50 was > 1170 µM and the half-maximal inhibitory concentration (IC50) was > 1170 µM.

Take `NC(CS)=NCCc1nc2ccccc2[nH]1`: the EC50 was > 200 µM and the IC50 came to 110 µM. Taken in the same sequence, the figures for `Cc1cc(=O)oc2c(CNC(CC(C)C)C(=O)O)c(O)ccc12` (centres undefined) were > 200 µM and > 200 µM. Regarding `COc1ccc(CNc2cc(=O)n(C)c(=O)[nH]2)cc1`, the EC50 was > 200 µM and the IC50 is > 200 µM.

Regarding `CCCCn1cnnc1NS(=O)(=O)c1cc(C)c(Cl)cc1SCC(=O)O`, the EC50 is > 200 µM and the IC50 was > 200 µM. `Cc1ccc(S(=O)(=O)c2c(C)cc(C)cc2C)cc1`: the EC50 is > 200 µM and the IC50 was 12.6 µM. The matching figures for `O=C(O)CCNCCCNCCC(=O)O`: > 851 µM and > 851 µM.

Regarding `Cc1cc(N(CCC#N)S(=O)(=O)c2ccccc2)ccc1/C=C1N=C(/C=C/c2ccccc2)OC\1=O`, the result was inactive. `COc1c(O)c2c(=O)cc(OC)c3c4c(OC)cc(=O)c5c(O)c(OC)c6c(c(c1C(C(C)O)C6C(C)O)c23)c54` (centres undefined): the EC50 is > 2 µM and the IC50 came out at 0.339 µM. The matching figures for `O=C(NP1(=O)NCc2ccccc2CN1)OC1CCCCC1`: > 288 µM and > 288 µM.

In the case of `O=C(O)c1ccc(OCc2nc3cc(C(F)(F)F)ccc3nc2-c2ccccc2)cc1`, the EC50 is > 200 µM and the IC50 worked out at 33.9 µM.

For the compound `COC(=O)/C=C(/C)n1nc2ccccc2n1`, the EC50 is > 200 µM and the IC50 was > 200 µM. As to `CCOP(=O)(OCC)[C@]12C[C@@H](C)C=C[C@H]1COC2=O`, the EC50 is > 200 µM and the IC50 turned out to be 135 µM.
